Experimental data published in ChEMBL document CHEMBL1921737, “Utilizing G-quadruplex formation to target 8-oxoguanine in telomeric sequences” (Bioorg Med Chem Lett, 2011).
The source made the active and inactive calls. The calls are words filed in the database; no cut-off is given here.

Tests used:
Assay type in all cases: nucleic-acid assay
[1] = tested on: Nucleic Acid; experiment: Binding affinity to telomeric G-quadruplex DNA 5'-d(AGGGTTAGOxodGGTTAGGGTTAGGGTGTT) at 1 to 10 uM by CD titration method in presence of 100 mM of KCl
[2] = tested on: Nucleic Acid; experiment: Induction of telomeric [32P] G-quadruplex DNA 5'-d(GOxodGTTAGGGTTAGGGTTAGGGTTAGGG) adduct formation at 4 uM for 30 mins in presence of Na2IrCl6 by PAGE method
[3] = tested on: Nucleic Acid; experiment: Binding affinity to telomeric G-quadruplex DNA 5'-d(AGGGTTAGGGTTAGGGTTAGGG) assessed as increase in melting temperature at 2 uM by UV thermal denaturation analysis
[4] = tested on: Nucleic Acid; experiment: Induction of telomeric [32P] G-quadruplex DNA 5'-d(AOxodGGTTAGGGTTAGGGTTAGGGTGTT) adduct formation at 4 uM for 30 mins in presence of Na2IrCl6 by PAGE method
[5] = tested on: Nucleic Acid; experiment: Binding affinity to telomeric G-quadruplex DNA 5'-d(AOxodGGTTAGGGTTAGGGTTAGGGTGTT) at 1 to 10 uM by CD titration method in presence of 100 mM of KCl
[6] = tested on: Nucleic Acid; experiment: Induction of telomeric [32P] G-quadruplex DNA 5'-d(AOxodGGTTAGGGTTAGGGTTAGGGTGTT) assessed as adducts decomposition half life at 4 uM for 30 mins in presence of Na2IrCl6 by PAGE method
[7] = biological target: Nucleic Acid; experiment: Binding affinity to telomeric G-quadruplex DNA 5'-d(AGGGTTAGGGTTAGGGTTAGGG) by UV titration method
[8] = tested on: Nucleic Acid; experiment: Induction of telomeric [32P] Duplex DNA 5'-d(CGTTCAGAGCCGOxodGTTACGTCCTTCAT) 3'-d(CGAAGTCTGGCCAATGCAGGAAGTA) adduct formation at 4 uM for 30 mins in presence of Na2IrCl6 by PAGE method
[9] = tested on: Nucleic Acid; experiment: Binding affinity to telomeric Duplex DNA 5'-d(CGTTCAGAGCCGOxodGTTACGTCCTTCAT) 3'-d(CGAAGTCTGGCCAATGCAGGAAGTA) at 1 to 10 uM by CD titration method in presence of 100 mM of KCl
[10] = tested on: Nucleic Acid; experiment: Induction of telomeric [32P] G-quadruplex DNA 5'-d(GOxodGTTAGGGTTAGGGTTAGGGTTAGGG) assessed as adducts decomposition half life at 4 uM for 30 mins in presence of Na2IrCl6 by PAGE method
[11] = tested on: Nucleic Acid; experiment: Induction of telomeric [32P] G-quadruplex DNA 5'-d(AGGGTTAGOxodGGTTAGGGTTAGGGTGTT) adduct formation at 4 uM for 30 mins in presence of Na2IrCl6 by PAGE method
[12] = tested on: Nucleic Acid; experiment: Binding affinity to telomeric G-quadruplex DNA 5'-d(GOxodGTTAGGGTTAGGGTTAGGGTTAGGG) at 1 to 10 uM by CD titration method in presence of 100 mM of KCl
[13] = tested on: Nucleic Acid; experiment: Binding affinity to telomeric G-quadruplex DNA 5'[32P]-d(AGGGTTAGGGTTAOxodGGGGTTAGGGTGTT) at 1 to 10 uM by CD titration method in presence of 100 mM of KCl
[14] = tested on: Nucleic Acid; experiment: Induction of telomeric [32P] G-quadruplex DNA 5'-d(AGGGTTAGGGTTAOxodGGGGTTAGGGTGTT) adduct formation at 4 uM for 30 mins in presence of Na2IrCl6 by PAGE method
[15] = tested on: Nucleic Acid; experiment: Binding affinity to telomeric G-quadruplex DNA 5'-d(AGGGTTAGGGTTAGGGTTAGGG) at 1 to 10 uM by CD titration method in presence of 100 mM of KCl

Row | SMILES | Activity [1] | Activity [2] | Tm [3] [°C] | Activity [4] | Activity [5] | T1/2 [6] [h] | Kd [7] [µM] | Activity [8] | Activity [9] | T1/2 [10] [h] | Activity [11] | Activity [12] | Activity [13] | Activity [14] | Activity [15]
1 | NCC(CN)CCC(=O)NCCCN1C(=O)c2ccc3c4ccc5c6c(ccc(c7ccc(c2c37)C1=O)c64)C(=O)N(CCCNC(=O)CCC(CN)CN)C5=O | inactive | Active | 5.2 | Active | Active | 36 | 0.86 | Active | Active | 36 | inactive | Active | Active | inactive | Active
2 | NCCCNCCCCNCCCN1C(=O)c2ccc3c4ccc5c6c(ccc(c7ccc(c2c37)C1=O)c64)C(=O)N(CCCNCCCCNCCCN)C5=O |  | Active |  |  |  |  |  |  |  |  |  |  |  |  | 
